Literature values in publication PMC12207366, “Protonated Glutamate and Aspartate Side Chains Can Recognize Phosphodiester Groups via Strong and Short Hydrogen Bonds in Biomacromolecular Complexes” (Angewandte Chemie (International Ed. in English), 2025).

Conditions: unstructured peptides; cited from earlier work

N[C@@H](CC(=O)O)C(=O)O [aspartate]
pKa of side chain carboxylate group: ~3.9
